Test results published in US9353090B2, “Heterocyclic carboxylic acids as activators of soluble guanylate cyclase” (Boehringer Ingelheim International GmbH, priority 2014, dated 2016).
≈ marks a conversion by molar mass, not a printed value.

Tests used:
[1] = target: human soluble guanylate cyclase alpha 1 and beta 1 subunits (sGC) (Homo sapiens (Human), UniProt Q02108+Q02153); assay: sGC cellular activator assay (cGMP, HTRF), in the presence and absence of 50% human serum; type: cell-based; details: CHO cells stably expressing human sGC alpha 1/beta 1, preincubated with 40 microM ODQ; cGMP by HTRF; Table 2 does not state whether with or without 50% human serum
Sequence of human soluble guanylate cyclase alpha 1 and beta 1 subunits (sGC) (Q02108 whole entry partner): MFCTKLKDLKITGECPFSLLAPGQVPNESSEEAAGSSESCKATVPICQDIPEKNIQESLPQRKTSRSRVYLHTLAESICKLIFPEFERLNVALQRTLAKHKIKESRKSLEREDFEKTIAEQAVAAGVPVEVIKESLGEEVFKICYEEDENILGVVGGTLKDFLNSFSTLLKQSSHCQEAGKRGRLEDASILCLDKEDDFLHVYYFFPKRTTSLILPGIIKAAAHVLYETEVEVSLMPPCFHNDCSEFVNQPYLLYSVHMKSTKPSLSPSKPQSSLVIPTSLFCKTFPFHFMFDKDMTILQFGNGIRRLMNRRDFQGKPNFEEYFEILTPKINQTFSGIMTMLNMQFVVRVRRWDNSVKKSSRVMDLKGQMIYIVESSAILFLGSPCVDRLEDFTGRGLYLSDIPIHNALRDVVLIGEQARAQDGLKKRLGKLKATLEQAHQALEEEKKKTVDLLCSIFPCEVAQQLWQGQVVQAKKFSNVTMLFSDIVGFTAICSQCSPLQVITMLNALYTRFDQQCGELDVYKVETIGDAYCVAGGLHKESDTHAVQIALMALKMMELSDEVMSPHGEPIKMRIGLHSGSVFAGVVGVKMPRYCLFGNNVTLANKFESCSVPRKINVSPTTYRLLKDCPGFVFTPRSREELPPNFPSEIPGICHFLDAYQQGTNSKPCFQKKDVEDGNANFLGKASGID
Sequence of human soluble guanylate cyclase alpha 1 and beta 1 subunits (sGC) (Q02153 whole entry): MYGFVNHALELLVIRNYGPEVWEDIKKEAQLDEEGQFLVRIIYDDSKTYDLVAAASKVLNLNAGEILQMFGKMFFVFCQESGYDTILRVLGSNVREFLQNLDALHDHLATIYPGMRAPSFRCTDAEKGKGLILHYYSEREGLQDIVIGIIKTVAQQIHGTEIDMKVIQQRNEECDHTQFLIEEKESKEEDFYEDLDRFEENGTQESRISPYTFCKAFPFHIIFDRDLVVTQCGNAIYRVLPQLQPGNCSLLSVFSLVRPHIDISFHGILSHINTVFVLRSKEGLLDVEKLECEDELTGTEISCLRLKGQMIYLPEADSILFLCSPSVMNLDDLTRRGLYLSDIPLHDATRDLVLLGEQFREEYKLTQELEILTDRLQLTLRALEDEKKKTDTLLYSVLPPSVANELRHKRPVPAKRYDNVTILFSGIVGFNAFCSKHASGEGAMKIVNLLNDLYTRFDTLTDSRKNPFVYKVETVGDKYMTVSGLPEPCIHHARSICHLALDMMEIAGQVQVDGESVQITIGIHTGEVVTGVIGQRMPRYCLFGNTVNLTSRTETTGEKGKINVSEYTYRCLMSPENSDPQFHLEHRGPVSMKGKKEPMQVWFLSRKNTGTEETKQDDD
Summary of the method: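 First, CHO-sGC (human α1β1) cells get 1 h ODQ at 40 microM with IBMX and 0.1% BSA. Finally, cGMP is quantified by HTRF and EC50 computed.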

physchem = details: kinetic from dmso stock
[2] = Human liver microsome (HLM) metabolic stability assay; type: in vitro ADME; details: human liver microsomes
Summary of the method: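 Remaining parent measured by LC/MS/MS (ESI, MRM) at 5, 15, 30 and 60 min relative to 0 min. Incubation: 1 uM compound, HLMs, NADPH-started, 37° C., 60 min total, single replicate. Slope of ln(% remaining) gives t1/2 = 0.693/slope, then CLint, CLh and % Qh.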

[3] = pH 2.2, aqueous buffer, Solubility (pH 2.2)
[4] = pH 4.5, aqueous buffer, Solubility (pH 4.5)
[5] = pH 6.8, aqueous buffer, Solubility (pH 6.8)

Row | EC50 [1] [nM] | solubility at 24 h (physchem; [3]) [µg/mL] | solubility at 24 h (physchem; [4]) [µg/mL] | solubility at 24 h (physchem; [5]) [µg/mL] | Metabolic stability (Qh %), % hepatic blood flow [2] [%] | SMILES
1 | 14 | 120 (≈ 220 µM) | 3.7 (≈ 6.78 µM) | 4.9 (≈ 8.98 µM) | 31 | Cc1ccc(OCc2cc(C)c3c(c2)CCN(C2COC2)C3)c(-c2csc(N3CC[C@@]4(C(=O)O)C[C@H]4C3)n2)c1 [Compound 124]
2 | 7 | 110 (≈ 199 µM) | 95 (≈ 172 µM) | 67 (≈ 121 µM) | <24 | Cc1cccc(-c2cccc(N3C[C@@H]4C[C@]4(C(=O)O)C3)n2)c1OCc1ccc2c(c1)CCN(C1CCOCC1)CC2 [Compound 31]
3 | 3 | 112 (≈ 187 µM) | 41.5 (≈ 69.4 µM) | 50.5 (≈ 84.4 µM) | 47 | CO[C@H]1CN(c2nc(-c3cccc(Cl)c3OCc3ccc4c(c3)[C@@H](C)CN(C3COC3)CC4)cs2)CC[C@H]1C(=O)O [Compound 321]
4 | 15 | 127 (≈ 202 µM) | 86.6 (≈ 138 µM) | 76.8 (≈ 123 µM) | <24 | CO[C@@H]1CN(c2nc(-c3cccc(Cl)c3OCc3ccc4c(c3)[C@@H](C)CN(C3CCOCC3)CC4)cs2)CC[C@@H]1C(=O)O [Compound 332]
5 | 20 | 100 (≈ 179 µM) | 84 (≈ 151 µM) | 64 (≈ 115 µM) | 33 | CO[C@H]1CN(c2cccc(-c3cccc(C)c3OCc3ccc4c(c3C)CCN(C3COC3)C4)n2)CC[C@H]1C(=O)O [Compound 66]
6 | 16 | 136 (≈ 230 µM) | 88.2 (≈ 149 µM) | 75 (≈ 126 µM) | <24 | COc1cc(COc2c(C)cccc2-c2csc(N3CC[C@@H](C(=O)O)[C@@H](OC)C3)n2)cc2c1CN([C@@H]1CCOC1)CC2 [Compound 210]
7 | 5 | 130 (≈ 227 µM) | 66 (≈ 115 µM) | 44 (≈ 76.7 µM) | 39 | Cc1cccc(-c2csc(N3CC[C@@]4(C(=O)O)C[C@H]4C3)n2)c1OCc1ccc2c(c1C)CCN(C1CCOC1)CC2 (some centres unmarked) [Compound 106]
8 | 6 | 131 (≈ 213 µM) | 128 (≈ 209 µM) | 120 (≈ 194 µM) | 83 | CCO[C@@H]1CN(c2cccc(-c3cccc(C)c3OCc3cc4c(c(OC)c3)CN(C3CCOCC3)CC4)n2)CC[C@@H]1C(=O)O [Compound 230]
9 | 13 | 129 (≈ 214 µM) | 127 (≈ 211 µM) | 120 (≈ 199 µM) | <24 | COc1cc(COc2c(C)cccc2-c2cccc(N3CC[C@H](C(=O)O)[C@H](OC)C3)n2)cc2c1CN(C1CCOCC1)CC2 [Compound 249]
10 | 257 | 128 (≈ 207 µM) | 124 (≈ 201 µM) | 117 (≈ 190 µM) | 55 | CCO[C@H]1CN(c2cccc(-c3cccc(C)c3OCc3cc4c(c(OC)c3)CN(C3CCOCC3)CC4)n2)CC[C@H]1C(=O)O [Compound 234]
11 | 45 | 100 (≈ 181 µM) | 93 (≈ 168 µM) | 6.4 (≈ 11.6 µM) | <24 | Cc1ccc(OCc2ccc3c(c2C)CCN(C2CCOCC2)C3)c(-c2cccc(N3C[C@@H]4C[C@]4(C(=O)O)C3)n2)c1 [Compound 35]
12 | 15 | 117 (≈ 190 µM) | 114 (≈ 184 µM) | 85.4 (≈ 138 µM) | <24 | CCO[C@H]1CN(c2nccc(-c3cccc(C)c3OCc3cc4c(c(OC)c3)CN(C3CCOCC3)CC4)n2)CC[C@H]1C(=O)O [Compound 246]
13 | 7 | 147 (≈ 243 µM) | 82.2 (≈ 136 µM) | 51.9 (≈ 85.6 µM) | 33 | CO[C@H]1CN(c2cccc(-c3cccc(Cl)c3OCc3cc(C)c4c(c3)CCN(C3CCOCC3)C4)n2)CC[C@H]1C(=O)O [Compound 250]
14 | 2 | 110 (≈ 204 µM) | 97 (≈ 180 µM) | 67 (≈ 124 µM) | <24 | Cc1cccc(-c2cccc(N3C[C@@H]4C[C@]4(C(=O)O)C3)n2)c1OCc1ccc2c(c1C)CCN(C1COC1)CC2 [Compound 34]
15 | 1 | 116 (≈ 193 µM) | 82.3 (≈ 137 µM) | 63.1 (≈ 105 µM) | 25 | CO[C@@H]1CN(c2cccc(-c3cccc(C)c3OCc3cc(C)c4c(c3)CCN(C3CCOCC3)CC4)n2)CC[C@@H]1C(=O)O [Compound 293]
16 | 17 | 99 (≈ 178 µM) | 71 (≈ 128 µM) | 74 (≈ 133 µM) | <24 | Cc1cc(COc2c(C)cccc2-c2ccnc(N3C[C@@H]4C[C@]4(C(=O)O)C3)n2)cc2c1CN(C1CCOCC1)CC2 [Compound 190]

Row | EC50 [1] [nM] | solubility at 24 h (physchem; [3]) [µg/mL] | solubility at 24 h (physchem; [4]) [µg/mL] | solubility at 24 h (physchem; [5]) [µg/mL] | Metabolic stability (Qh %), % hepatic blood flow [2] [%] | SMILES
17 | 6 | 122 (≈ 212 µM) | 85.1 (≈ 148 µM) | 68 (≈ 118 µM) | <24 | CO[C@H]1CN(c2cccc(-c3cccc(C)c3OCc3ccc4c(c3F)CCN(C3COC3)CC4)n2)CC[C@H]1C(=O)O [Compound 278]
18 | 56 | 148 (≈ 233 µM) | 83.9 (≈ 132 µM) | 58.3 (≈ 91.6 µM) | 40 | CCO[C@@H]1CN(c2cccc(-c3cccc(Cl)c3OCc3cc4c(c(OC)c3)CN(C3CCOCC3)CC4)n2)CC[C@@H]1C(=O)O [Compound 260]
19 | 4 | 120 (≈ 214 µM) | 69 (≈ 123 µM) | 48 (≈ 85.8 µM) | 43 | Cc1cccc(-c2csc(N3CC[C@@]4(C(=O)O)C[C@H]4C3)n2)c1OCc1ccc2c(c1C)CCN(C1CCOC1)C2 (some centres unmarked) [Compound 88]
20 | 3 | 160 (≈ 281 µM) | 140 (≈ 246 µM) | 79 (≈ 139 µM) | 35 | Cc1c(COc2ccccc2-c2cccc(N3CC[C@@]4(C(=O)O)C[C@H]4C3)n2)ccc2c1CCN(CC1COCCO1)C2 (some centres unmarked) [Compound 5]
21 | 29 | 130 (≈ 222 µM) | 110 (≈ 188 µM) | 80 (≈ 137 µM) | 31 | CO[C@H]1CN(c2cccc(-c3cccc(C)c3OCc3ccc4c(c3C)CCN(C3CCOCC3)C4)n2)CC[C@H]1C(=O)O [Compound 65]
22 | 6 | 115 (≈ 184 µM) | 35.1 (≈ 56.3 µM) | 3 (≈ 4.81 µM) | <24 | CCO[C@@H]1CN(c2nc(-c3cc(C)ccc3OCc3cc(C)c4c(c3F)CCN(C3CCOCC3)C4)cs2)CC[C@@H]1C(=O)O [Compound 269]
23 | 130 | 113 (≈ 181 µM) | 80.5 (≈ 129 µM) | 78 (≈ 125 µM) | <24 | Cc1cccc(-c2cccc(N3CC[C@H](C(=O)O)[C@@H]4OCCC[C@H]43)n2)c1OCc1ccc2c(c1C)CCN(C1CCOCC1)CC2 [Compound 337]
24 | 71 | 110 (≈ 192 µM) | 70 (≈ 122 µM) | 53 (≈ 92.4 µM) | <24 | Cc1cc(C)c(OCc2ccc3c(c2C)CCN(C2CCOCC2)C3)c(-c2csc(N3C[C@@H]4C[C@]4(C(=O)O)C3)n2)c1 [Compound 152]
25 | 154 | 116 (≈ 220 µM) | 82.3 (≈ 155 µM) | 62.3 (≈ 118 µM) | <24 | CO[C@@H]1CN(c2cccc(-c3cccc(C)c3OCc3ccc4c(c3C)CCN(C)CC4)n2)CC[C@@H]1C(=O)O [Compound 300]
26 | 8 | 110 (≈ 180 µM) | 96 (≈ 157 µM) | 74 (≈ 121 µM) | <24 | COC[C@H]1N(c2cccc(-c3cccc(C)c3OCc3ccc4c(c3C)CCN(C3CCOCC3)CC4)n2)C[C@@H]2C[C@@]21C(=O)O [Compound 61]
27 | 6 | 110 (≈ 199 µM) | 90 (≈ 163 µM) | 60 (≈ 108 µM) | <24 | Cc1cc(COc2c(C)cccc2-c2cccc(N3C[C@@H]4C[C@]4(C(=O)O)C3)n2)cc2c1CN(C1CCOCC1)CC2 [Compound 22]
28 | 8 | 110 (≈ 204 µM) | 82 (≈ 152 µM) | 32 (≈ 59.3 µM) | 63 | Cc1ccc(OCc2ccc3c(c2C)CCN(C2COC2)C3)c(-c2cccc(N3CC[C@@]4(C(=O)O)C[C@H]4C3)n2)c1 [Compound 19]
29 | 5 | 120 (≈ 198 µM) | 80.7 (≈ 134 µM) | 64.3 (≈ 107 µM) | <24 | CO[C@H]1CN(c2cccc(-c3cccc(C)c3OCc3cc(F)c4c(c3)CCN(C3CCOCC3)CC4)n2)CC[C@H]1C(=O)O [Compound 273]
30 | 3 | 120 (≈ 211 µM) | 94 (≈ 166 µM) | 53 (≈ 93.4 µM) | 61 | Cc1cccc(-c2cccc(N3CC[C@@]4(C(=O)O)C[C@H]4C3)n2)c1OCc1ccc2c(c1C)CCN(C1CCOCC1)C2 [Compound 14]
31 | 3 | 120 (≈ 204 µM) | 79 (≈ 134 µM) | 38 (≈ 64.6 µM) | 61 | Cc1cc(COc2c(C)cccc2-c2csc(N3CC[C@@]4(C(=O)O)C[C@H]4C3)n2)c(C)c2c1CN(C1CCOCC1)CC2 [Compound 101]
